Measured values reported in publication PMC7156724, “Potent BRD4 inhibitor suppresses cancer cell-macrophage interaction” (Nature Communications, 2020).
Where “and” joins values, the source holds several entries; their conditions need not be identical. Equal values may be shown once.

Experiments:
MDA-MB231 TNBC = MDA-MB231 TNBC xenograft growth; type: in vivo, mouse; design: MDA-MB231 tumor size (Sup Fig.9d; quantity and unit not given): unit not given here
Description: (§1) 4–6 weeks old female BALB/c nude mice were used for most experiments, with the exception of 6–8 weeks old female C57BL/6 mice were used for B16F10 experiments, and 6–8 weeks old male BALB/c nude mice and SD rats were used for pharmacokinetic experiments. All animals were purchased from Shanghai SIPPR-Bk Lab Animal Co., Ltd. All animals were housed under a regimen of 12 h light/12 h dark cycles and specific pathogen-free conditions. 5×10^6 NCI-H526, ES-2, MDA-MB231, A2780, A375, B16F10, and TMD-8 cells (0.1 ml) were injected subcutaneously into female nude mice. The melanoma patient-derived xenograft model was derived from a human melanoma sample (BRAF, NARS and NF1 wild type, and p53 mutant) removed from a patient in Xiangya Hospital. Surgically removed tumor fragments were implanted subcutaneously into female NSG mice. When the tumors grew to ~1000 mm^3, they were harvested and cryopreserved or immediately re-implanted for expansion or experiments. Mouse body weight and tumor sizes were measured every 3 days. Once the tumors grew to 150–200 mm^3, mice were treated with the compounds as described in the Figures. 1 × 10^6 A2780 cells (1 ml) were injected into the abdominal cavity of nude mice. Ascitic volume and tumor weight were measured by an electronic balance. All the procedures were evaluated and approved by the Institutional Animal Care and Use Committee of Central South University and Yale University.
Supplementary Figure 9. […]
PO, oral administration; QD, once daily; BID, twice daily; D, day. (c,d) Tumor growth curves for ES2 ovarian tumor (c), MDA-MB231 breast tumor (d) bearing mice treated with the indicated compounds for 21 days. Compounds were orally administrated once daily. Data are presented as mean ± SEM from 6 different mice. p values were calculated using two-tailed, unpaired t tests.
**, p<0.01; ***, p<0.001. Source data are provided as a Source Data file. […]

[1] = In vivo pharmacokinetics study, rat; design: species or system SD rat; conditions: for Plasma Conc.: individual animals, LLOQ 1.00 ng/mL
Description: as §1
Supplementary Figure 7. Pharmacokinetic profile of NHWD-870 using mouse and rat models.
(a,b) Plasma concentrations of NHWD-870 in healthy (a) mouse and (b) rat after intravenous (IV, 1.75 mg/kg for mouse and 1 mg/kg for rat) and oral (PO, 5 mg/kg) administration. Values shown on the right panels are mean ± SEM from 3 different animals. (c,d) Mean concentrations of NHWD-870 in the lungs (c) and tumors (d) of H526 xenograft model at the indicated hours after oral administration of 3 mg/kg NHWD-870 and BMS-98615821 on day 21. These mice were administrated the indicated drug daily for 21 days. Data are represented as mean ± SEM of 3 independent experiments. Source data are provided as a Source Data file. […]
9. In vivo pharmacokinetics study. Mouse and SD rat models were used to evaluate pharmacokinetic property of NHWD-870. NHWD-870 was administrated […]
Concentration of drugs in plasma, lung and tumor tissues were measured for the indicated time. […]

Cc1nnn(C)c1-c1cnc2c3c4cnn(C)c4ccc3n([C@H](c3ccccc3)C3CCOCC3)c2c1 [NHWD-870]
MDA-MB231 tumor size (Sup Fig.9d; quantity and unit not given) (MDA-MB231 TNBC; 1mg/kg p.o. QD x 21D, day 0, individual animals): 279.42 and 121.19 and 223.85 and 207.81 and 142.25 and 116.01
MDA-MB231 tumor size (Sup Fig.9d; quantity and unit not given) (MDA-MB231 TNBC; 1mg/kg p.o. QD x 21D, day 3, individual animals): 342.36 and 216.69 and 301.84 and 236.23 and 182.39 and 129.14
MDA-MB231 tumor size (Sup Fig.9d; quantity and unit not given) (MDA-MB231 TNBC; 1mg/kg p.o. QD x 21D, day 7, individual animals): 454.4 and 329.94 and 520.71 and 309.24 and 176.3 and 192.56
MDA-MB231 tumor size (Sup Fig.9d; quantity and unit not given) (MDA-MB231 TNBC; 1mg/kg p.o. QD x 21D, day 10, individual animals): 681 and 486.76 and 545.06 and 482.5 and 217.9 and 268.16
MDA-MB231 tumor size (Sup Fig.9d; quantity and unit not given) (MDA-MB231 TNBC; 1mg/kg p.o. QD x 21D, day 14, individual animals): 889.946 and 639.335 and 784.126 and 538.093 and 253.479 and 345.127
MDA-MB231 tumor size (Sup Fig.9d; quantity and unit not given) (MDA-MB231 TNBC; 1mg/kg p.o. QD x 21D, day 17, individual animals): 973.96 and 796.38 and 1110.48 and 713.45 and 300.77 and 432.71
MDA-MB231 tumor size (Sup Fig.9d; quantity and unit not given) (MDA-MB231 TNBC; 1mg/kg p.o. QD x 21D, day 21, individual animals): 1038.8 and 904.78 and 1426.58 and 1004.43 and 413.96 and 626.93
MDA-MB231 tumor size (Sup Fig.9d; quantity and unit not given) (MDA-MB231 TNBC; 3mg/kg p.o. QD x 21D, day 0, individual animals): 118.16 and 163.39 and 132.22 and 223.66 and 238.14 and 193.21
MDA-MB231 tumor size (Sup Fig.9d; quantity and unit not given) (MDA-MB231 TNBC; 3mg/kg p.o. QD x 21D, day 3, individual animals): 111.38 and 180.22 and 170.04 and 238.46 and 333.75 and 199.82
MDA-MB231 tumor size (Sup Fig.9d; quantity and unit not given) (MDA-MB231 TNBC; 3mg/kg p.o. QD x 21D, day 7, individual animals): 184.36 and 185.35 and 194.47 and 370.49 and 294.2 and 222.64
MDA-MB231 tumor size (Sup Fig.9d; quantity and unit not given) (MDA-MB231 TNBC; 3mg/kg p.o. QD x 21D, day 10, individual animals): 223.77 and 229.36 and 217.46 and 450.48 and 331.57 and 251.49
MDA-MB231 tumor size (Sup Fig.9d; quantity and unit not given) (MDA-MB231 TNBC; 3mg/kg p.o. QD x 21D, day 14, individual animals): 325.631 and 331.431 and 303.664 and 453.402 and 392.114 and 282.288
MDA-MB231 tumor size (Sup Fig.9d; quantity and unit not given) (MDA-MB231 TNBC; 3mg/kg p.o. QD x 21D, day 17, individual animals): 488.17 and 465.37 and 409.38 and 652.35 and 540.67 and 429.56
MDA-MB231 tumor size (Sup Fig.9d; quantity and unit not given) (MDA-MB231 TNBC; 3mg/kg p.o. QD x 21D, day 21, individual animals): 586.22 and 557.41 and 558.02 and 759.6 and 643.46 and 481.28
effect on tumor growth (MDA-MB231 TNBC; MDA-MB231 TNBC, oral once daily 21 days): strong tumor-suppressive effects
AUCExtra ([1]; IV 1 mg/kg): 2.21±0.73%
AUMCExtra ([1]; IV 1 mg/kg): 11.5±3.025%
Cl ([1]; IV 1 mg/kg, 1 mg/kg): 50 mL/min/kg
T1/2 ([1]; IV 1 mg/kg, 1 mg/kg): 54 min
Plasma Conc. ([1]; IV bolus, 5 min): 362 ng/mL and 355 ng/mL
Plasma Conc. ([1]; IV bolus, 0.25 h): 274 ng/mL and 247 ng/mL
Plasma Conc. ([1]; IV bolus, 0.5 h): 208 ng/mL and 167 ng/mL
Plasma Conc. ([1]; IV bolus, 1 h): 98.1 ng/mL and 112 ng/mL
Plasma Conc. ([1]; IV bolus, 2 h): 48.1 ng/mL and 40.3 ng/mL
Plasma Conc. ([1]; IV bolus, 4 h): 8.88 ng/mL and 8.14 ng/mL
Plasma Conc. ([1]; IV bolus, 8 h): BQL
Plasma Conc. ([1]; IV bolus, 24 h): BQL
AUCExtra ([1]; PO 5 mg/kg): 3.97±1.15%
AUMCExtra ([1]; PO 5 mg/kg): 11.8±2.615%
Tlast ([1]; PO 5 mg/kg): 8 h
Plasma Conc. ([1]; PO, 0.25 h): 18.8 ng/mL and 13.3 ng/mL
Plasma Conc. ([1]; PO, 0.5 h): 58.3 ng/mL and 33.9 ng/mL
Plasma Conc. ([1]; PO, 1 h): 117 ng/mL and 106 ng/mL and 54.6 ng/mL
Plasma Conc. ([1]; PO, 2 h): 111 ng/mL and 73.5 ng/mL
Plasma Conc. ([1]; PO, 4 h): 48.1 ng/mL and 45.9 ng/mL
Plasma Conc. ([1]; PO, 6 h): 20.2 ng/mL and 15.9 ng/mL and 50.5 ng/mL
